These results are taken from patent US8399498B2, “Animal ectoparasite-controlling agent” (Sumitomo Chemical Company, Limited, priority 2010, dated 2013).

Assay type in all cases: in vivo
In assay [1] the test system is Haemaphysalis longicornis. Briefly: Dropping application against dog-infested ticks. Conditions: dog (beagle), dropping application on skin of neck and back, 20 mg/kg. As to the method: The previous day before dropping application, 100 test ticks (Haemaphysalis longicornis, young ticks) were deposited on a dog (beagle). Before the dropping application, infested ticks were counted.
Each (1.5 g) of the present hydrazide compound (1) and Comparative compound (52) was dissolved in diethylene glycol monoethyl ether (6.0 g) to prepare a test solution. Said test solution was directly dropped on the skin of the neck and back of the dog while pushing aside fur thereon at a rate of 0.1 ml per 1 kg of the dog's body weight (dose amount: 20 mg/kg). This is referred to as a test group. On the other hand, diethylene glycol monoethyl ether alone was applied dropwise to a placebo group.
Two (2) days after the application, the number of living ticks, which were infesting the dogs, was examined. When the examination was completed, all infested ticks were removed from the dogs.
The infestation rate and control rate were calculated by the following formulae:
Method of calculating infestation rate and control rate at the initial stage (2 days) after the application: Infestation rate (%) at X days after application=(number of living ticks at X days/number of living ticks before application)×100 Control rate (%) at X days after application=(infestation rate of test group before application−infestation rate of test group at X days)/infestation rate of test group before application×100 […]

The test system of assay [2] is Haemaphysalis longicornis. The assay can be described thus: Dropping application against mouse-infested ticks. Conditions: 0.1% w/v solution 200 μL dropwise on whole body surface, 2 days after application. As to the method: The previous day before dropping application, 30 test ticks (Haemaphysalis longicornis, young ticks) were deposited on a mouse. Before the dropping application, uninfested ticks were removed.
The present hydrazide compound (1) (5 mg) was dissolved in a mixture (5 mL) of propylene carbonate and diethylene glycol monoethyl ether in equal amounts to prepare a 0.1% w/v solution. Said solution (200 μL) was applied dropwise to the whole body surface of a mouse with a pipette. To a control group, the mixture (200 μL) alone was applied. Each application was repeated 3 times per group.
Two (2) days after the application, the number of dead ticks was examined and the mortality was calculated by the following formula: Mortality (%)=100×(number of dead ticks/infested ticks before dropping application)

The test system of assay [3] is Haemaphysalis longicornis. The assay can be described thus: Oral administration against mouse-infested ticks. Conditions: test solution 20 mg/10 mL at 10 mL per 1 kg body weight, 2 days after administration. The protocol: The previous day before oral administration, 30 test ticks (Haemaphysalis longicornis, young ticks) were deposited on a mouse. Before the oral administration, uninfested ticks were removed.
The present hydrazide compound (1) (20 mg) was dissolved in dimethylformamide (680 mg), and thereto a corn oil was added to prepare a test solution (10 mL). Said test solution was orally administered to the mouse at the rate of 10 mL per 1 kg of the body weight of the mouse with a gastric sonde. To a control group, a 7% dimethylformamide/corn oil solution alone was orally administered. Each administration was repeated 3 times per group.
Two (2) days after the administration, the number of dead ticks was examined and the mortality was calculated by the following formula: Mortality (%)=100×(number of dead ticks/infested ticks before oral administration)

For `CC(=O)NNc1cc(C2=NOC(c3cc(Cl)cc(Cl)c3)(C(F)(F)F)C2)ccc1Cl` (stereo not shown) [Comparative compound (52), N′-{5-[5-(3,5-dichlorophenyl)-5-trifluoromethyl-4,5-dihydroisoxazol-3-yl]-2-chlorophenyl}acetohydrazide, reference compound], the “Tick control rates (%) at 2 days after the application” value in assay [1] is reported as 44%.
Take `COCC(=O)NNc1cc(C2=NOC(c3cc(Cl)cc(Cl)c3)(C(F)(F)F)C2)ccc1Cl` (stereo not shown) [Compound (1), N′-{2-chloro-5-[5-(3,5-dichlorophenyl)-5-trifluoromethyl-4,5-dihydroisoxazol-3-yl]phenyl}methoxyacetohydrazide]: the results for the Mortality in assay [2] and in assay [3] were not below 70% and not below 90%, respectively. Moreover, in assay [1], the “Tick control rates (%) at 2 days after the application” value worked out at 94%.
